Measured values published in PubChem BioAssay AID977605 (Broad Institute, 2014).
The source made the active and inactive calls.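 Rule for the calls: active = fitted curve reaches 40% activation below the top valid tested dose, in every test run; inconclusive = test runs disagree on the call; inactive = the rest, including effects opposite to the expected direction.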

Assay: E-selectin inducers in HUVECs, dose response, imaging, HUVEC, cherry-picked samples (AID 977605);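 note: signal is the share of imaged cells scored positive for E-selectin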
Details: HUVEC E-selectin immunostaining, percent of TNF-alpha response over vehicle

Row | Structure (SMILES) | activation (at 19.5 µM (top of the series)) | activation (at 21 µM (top of the series))
1 | CC(C)C[C@@H]1COc2cc(N3CCC[C@H]3CO)ccc2S(=O)(=O)N1 | -0.153% (inactive) | –
2 | C[C@@H]1CN([C@H](C)CO)C(=O)Cc2cc(NS(=O)(=O)c3ccc(F)cc3)ccc2O[C@@H]1CN(C)S(=O)(=O)c1ccc(Cl)cc1 | 1.34% (inactive) | –
3 | CC(C)NC(=O)N(C)C[C@H]1Oc2ccc(NC(=O)CCN3CCOCC3)cc2C(=O)N([C@H](C)CO)C[C@@H]1C | – | 0.008% (inactive)
4 | C[C@@H]1CN([C@H](C)CO)C(=O)c2cccc(NC(=O)c3ccncc3)c2O[C@H]1CN(C)S(=O)(=O)c1ccccc1 | 2.7% (inactive) | –
5 | C[C@H](CO)N1C[C@H](C)[C@@H](CN(C)S(=O)(=O)c2ccccc2)Oc2ccc(NC(=O)Nc3ccc(C(F)(F)F)cc3)cc2C1=O | 0.863% (inactive) | –
6 | COc1ccc(S(=O)(=O)N(C)C[C@@H]2Oc3ccc(NC(=O)c4ccncc4)cc3C(=O)N([C@@H](C)CO)C[C@@H]2C)cc1 | -0.183% (inactive) | –
7 | O=C(COC(=O)CCC(=O)c1ccc(F)cc1)Nc1cccc(S(=O)(=O)N2CCCC2)c1 | 2.61% (inactive) | –
8 | C[C@H]1CN([C@@H](C)CO)C(=O)Cc2cc(NC(=O)CCCCCC(=O)Nc3ccccc3N)ccc2O[C@H]1CN(C)Cc1ccc(Cl)c(Cl)c1 | – | 5.06% (inactive)
9 | C[C@H](CO)N1C[C@H](C)[C@@H](CN(C)S(=O)(=O)c2ccc(Cl)cc2)Oc2ccc(NS(=O)(=O)c3ccc(F)cc3)cc2CC1=O | -0.113% (inactive) | –
10 | CC(=O)c1ccc(N2CCN(c3ccnc4cc(Cl)ccc34)CC2)cc1 | 1.69% (inactive) | –
11 | C[C@H](CO)N1C[C@H](C)[C@H](CN(C)C)Oc2ccc(NC(=O)Nc3ccccc3)cc2CC1=O | – | -0.138% (inactive)
12 | CCn1nc(CC(=O)O)c2ccccc2c1=O | 5.69% (inactive) | –
13 | C[C@@H]1CN([C@H](C)CO)C(=O)c2cc(NS(=O)(=O)c3cn(C)cn3)ccc2O[C@@H]1CN(C)C(=O)Nc1ccc2c(c1)OCO2 | – | -0.098% (inactive)
14 | C[C@@H]1CN([C@H](C)CO)C(=O)c2cccc(NS(=O)(=O)c3cccs3)c2O[C@H]1CN(C)Cc1ccc(Cl)c(Cl)c1 | -0.024% (inactive) | –
15 | C=CCn1c(=N)n(CC(=O)c2ccc(Br)s2)c2ccccc21 | 1.81% (inactive) | –
16 | CC(C)NC(=O)Nc1cccc2c1O[C@H](CN(C)Cc1ccc(Cl)c(Cl)c1)[C@H](C)CN([C@@H](C)CO)C2=O | -0.02% (inactive) | –
17 | COc1ccc(S(=O)(=O)Nc2ccc3c(c2)CC(=O)N([C@H](C)CO)C[C@H](C)[C@@H](CN(C)C(=O)NC2CCCCC2)O3)cc1 | -0.163% (inactive) | –
18 | Cc1noc(C)c1NC(=O)N(C)C[C@H]1Oc2ccc(NS(=O)(=O)c3cccs3)cc2C(=O)N([C@H](C)CO)C[C@H]1C | -0.05% (inactive) | –
19 | C[C@H]1CN([C@@H](C)CO)C(=O)Cc2cc(NC(=O)Nc3ccccc3)ccc2O[C@H]1CN(C)C | 0.067% (inactive) | –
20 | C[C@H]1CN([C@@H](C)CO)C(=O)Cc2cc(NC(=O)NC3CCCCC3)ccc2O[C@@H]1CN(C)Cc1ccc(Cl)c(Cl)c1 | 0.088% (inactive) | –
21 | C[C@H](CO)N1C[C@H](C)[C@H](CN(C)Cc2ccc(Oc3ccccc3)cc2)Oc2c(NC(=O)C3CCOCC3)cccc2C1=O | 6.04% (inactive) | –
22 | C[C@@H]1CN([C@H](C)CO)C(=O)c2cccc(NS(C)(=O)=O)c2O[C@H]1CN(C)Cc1ccncc1 | 1.77% (inactive) | –
23 | CCC(=O)N(C)C[C@H]1Oc2ncc(Br)cc2C(=O)N([C@@H](C)CO)C[C@@H]1C | 0.243% (inactive) | –
24 | CCCN1[C@H](CO)[C@H](c2ccc(C#Cc3ccccc3)cc2)[C@@H]1CNC1CCCC1 | 4.52% (inactive) | –
25 | CC(C)NC(=O)Nc1ccc2c(c1)C(=O)N(C)[C@@H]1CC[C@@H](CC(=O)NCC(F)(F)F)O[C@@H]1CO2 | 0.147% (inactive) | –
26 | CN(C)CCN1CCN(C2CN(Cc3cn(Cc4ccc(C(F)(F)F)cc4)nn3)S(=O)(=O)C2)CC1 (stereo unspecified) | 1.57% (inactive) | –

Row | Structure (SMILES) | activation (at 19.5 µM (top of the series)) | activation (at 21 µM (top of the series))
27 | COC(=O)CCCn1cc(CN2CC(N3CCN(Cc4ccccc4F)CC3)CS2(=O)=O)nn1 (stereo unspecified) | -0.246% (inactive) | –
28 | Cc1cc(C)cc(NC(=O)Cc2ccc(NC3=NC4CS(=O)(=O)CC4S3)cc2)c1 (stereo unspecified) | 0.105% (inactive) | –
29 | C[C@H](CO)N1C[C@H](C)[C@H](CN(C)Cc2ccc(C(F)(F)F)cc2)Oc2ccc(N(C)C)cc2CC1=O | 0.692% (inactive) | –
30 | Cc1noc(C)c1NC(=O)N(C)C[C@H]1Oc2ccc(NC(=O)c3ccncc3)cc2C(=O)N([C@H](C)CO)C[C@H]1C | 0.014% (inactive) | –
31 | CC(C)NC(=O)N(C)C[C@@H]1Oc2c(NC(=O)c3ccc(-c4nccs4)cc3)cccc2C(=O)N([C@@H](C)CO)C[C@H]1C | 1.61% (inactive) | –
32 | Cc1cc(C(=O)Nc2ccc(C)c(C)c2)n(-c2ccccc2)n1 | 0.076% (inactive) | –
33 | CCCCC1C(=O)N(c2ccccc2)N(c2ccc(O)cc2)C1=O (stereo unspecified) | -0.246% (inactive) | –
34 | COc1ccc(NC(=O)Nc2cccc3c2O[C@H](CN(C)Cc2ccc(C(=O)Nc4ccccc4N)cc2)[C@H](C)CN([C@H](C)CO)C3=O)cc1 | 1.32% (inactive) | –
35 | C[C@H]1CN([C@@H](C)CO)C(=O)c2cccc(NS(=O)(=O)c3ccc(F)cc3)c2O[C@H]1CN(C)S(=O)(=O)c1cccs1 | -0.103% (inactive) | –
36 | Cc1[nH]c(C)c(S(=O)(=O)N2CCCCC2)c1C(=O)N1CCCC1 | -0.044% (inactive) | –
37 | C[C@@H]1CN([C@H](C)CO)C(=O)Cc2cc(NC(=O)Nc3ccccc3)ccc2O[C@@H]1CN(C)C | 4.89% (inactive) | –
38 | OC(CSc1ccc(F)cc1)CN1CCN(c2ccccc2)CC1 (stereo unspecified) | -0.165% (inactive) | –
39 | C[C@H]1CN([C@@H](C)CO)C(=O)c2cc(NC(=O)Nc3ccc(F)cc3)ccc2O[C@H]1CN(C)S(C)(=O)=O | 4.69% (inactive) | –
40 | C[C@@H]1CN([C@H](C)CO)C(=O)Cc2cc(NC(=O)Nc3ccc4c(c3)OCO4)ccc2O[C@H]1CN(C)Cc1ccc(Cl)c(Cl)c1 | 0.291% (inactive) | –
41 | CCOC(=O)C1(Cc2cccc(OC)c2)CCN(Cc2ccccc2)CC1 | 0.067% (inactive) | –
42 | C[C@H]1CN([C@@H](C)CO)C(=O)c2cc(NC(=O)Nc3ccc4c(c3)OCO4)ccc2O[C@@H]1CN(C)S(=O)(=O)c1ccc(F)cc1 | -0.105% (inactive) | –
43 | CCOC(=O)C1CCCN(C(=O)c2cc(S(=O)(=O)N(C)C)ccc2N2CCCC2)C1 (stereo unspecified) | 0.51% (inactive) | –
44 | C[C@H](CO)N1C[C@H](C)[C@@H](CN(C)S(C)(=O)=O)Oc2ccc(NC(=O)CCCCCC(=O)Nc3ccccc3N)cc2CC1=O | 0.149% (inactive) | –
45 | C[C@@H]1CN([C@H](C)CO)C(=O)c2cccc(NS(=O)(=O)c3ccc(F)cc3)c2O[C@@H]1CN(C)S(=O)(=O)c1cccs1 | – | -0.042% (inactive)
46 | COc1ccc(S(=O)(=O)NCC(=O)NCc2cc(=O)n(C)c(=O)n2C)cc1F | 0.047% (inactive) | –
47 | CN(Cc1cccc2ncccc12)C(=O)CC1C(=O)NCCN1Cc1ccc(F)cc1 (stereo unspecified) | -0.111% (inactive) | –
48 | C[C@H](CO)N1C[C@H](C)[C@@H](CN(C)S(=O)(=O)c2cn(C)cn2)Oc2ccc(NC(=O)Nc3ccc(F)cc3)cc2CC1=O | 0.1% (inactive) | –
49 | C[C@H](CO)N1C[C@H](C)[C@H](CN(C)S(C)(=O)=O)Oc2c(NS(C)(=O)=O)cccc2C1=O | – | -0.054% (inactive)
50 | C[C@H](CO)N1C[C@H](C)[C@H](CN(C)C(=O)c2ccc3c(c2)OCO3)Oc2cc(-c3ccccc3)ccc2S1(=O)=O | -0.242% (inactive) | –
51 | CCOC(=O)c1sc(NC(=O)CN2C(=O)C3CC=CCC3C2=O)nc1C (stereo unspecified) | 0.503% (inactive) | –
